This is an account of results in patent US11795159B2 (priority 2021, dated 2023).

The target in assay [1] is SARS-CoV-2 3CLpro (Severe acute respiratory syndrome coronavirus 2 (2019-nCoV) (SARS-CoV-2), UniProt P0DTD1). In words: biochemical.
The test system of assay [2] is SARS-CoV-2. Put plainly: microbe, parasite or virus in culture. Format: cell-based. The note with it: Severe acute respiratory syndrome coronavirus 2, 72 h, read-out: ID50 (Antiviral Data).
The mark [3] stands for this setting: IC50 (SARS-CoV-2 3CLpro Inhibition).
Setting [4] is: read-out: IC50 (SARS-CoV-2 3CLpro Inhibition).

pIC50: −log10 of the molar value. Where two headings read alike, the source gives them in different places.

As to `CCC(=O)N1CCCC1C(=O)N(c1ccc(C(C)(C)C)cc1)C(C(=O)NC(C)(C)C)c1cccnc1` (stereo not drawn) [Compound 5], the pIC50 in assay [1] (setting [3]) and in assay [2] was under 4.00 throughout.

For `C=CS(=O)(=O)N1CC[C@@H](C(=O)N(c2ccc(C(C)(C)C)cc2)C(C(=O)NC(C)(C)C)c2cccnc2)C1` (stereo partly drawn) [Compound 13], the pIC50 in assay [1] (setting [3]) and in assay [2] was under 4.00 throughout.

On to `C=CC(=O)N1CCC(C(=O)N(c2ccc(C(C)(C)C)cc2)C(C(=O)NC(C)(C)C)c2cccnc2)C1` (stereo not drawn) [Compound 9], for which the results for the pIC50 in assay [1] (setting [3]) and in assay [2] were 4.00 to 5.00 and under 4.00, respectively.

Regarding `C=CC(=O)N1CCC(F)(F)CC1C(=O)N(c1ccc(C(C)(C)C)cc1)C(C(=O)NC(C)(C)C)c1cccnc1` (stereo not drawn) [Compound 15], the pIC50 in assay [1] (setting [3]) and in assay [2] was under 4.00 each time.

As for `C=CS(=O)(=O)N1CC[C@@H](C(=O)N(c2ccc(C(C)(C)C)cc2)C(C(=O)NC(C)(C)C)c2cccnc2)C1` (stereo partly drawn) [Compound 14], the pIC50 in assay [1] (setting [4]) was under 4.00.

`C/C=C/C(=O)N1CCCC1C(=O)N(c1ccc(C(C)(C)C)cc1)C(C(=O)NC(C)(C)C)c1cccnc1` (stereo not drawn) [Compound 8] showed a pIC50 in assay [1] (setting [3]) of 4.00 to 5.00.

Consider `C=CC(=O)N1CCCC1C(=O)N(c1ccc(C(C)(C)C)cc1)C(C(=O)NC(C)(C)C)c1cccnc1` (stereo not drawn) [Compound 12], for which the pIC50 in assay [1] (setting [3]) and in assay [2] was under 4.00 each time.

In assay [1] (setting [3]), `C/C=C(\C)C(=O)N1CCC[C@@H]1C(=O)N(c1ccc(C(C)(C)C)cc1)C(C(=O)NC(C)(C)C)c1cccnc1` (stereo partly drawn) [Compound 6] showed a pIC50 of 4.00 to 5.00.

With `C=CS(=O)(=O)N1CCCC1C(=O)N(c1ccc(C(C)(C)C)cc1)C(C(=O)NC(C)(C)C)c1cccnc1` (stereo not drawn) [Compound 11], the pIC50 in assay [1] (setting [3]) and in assay [2] was under 4.00 each time.

In assay [1] (setting [3]), `C=CC(=O)N1CC[C@@H](C(=O)N(c2ccc(C(C)(C)C)cc2)C(C(=O)NC(C)(C)C)c2cccnc2)C1` (stereo partly drawn) [Compound 10] had a pIC50 of 4.00 to 5.00.

For `C/C=C/C(=O)N1CCCC1C(=O)N(c1ccc(C(C)(C)C)cc1)C(C(=O)NC(C)(C)C)c1cccnc1` (stereo not drawn) [Compound 7], the figures for the pIC50 in assay [1] (setting [3]) and in assay [2] were 5.00 to 6.00 and under 4.00, respectively.

For the compound `C=CC(=O)N1CCCC1C(=O)N(c1ccc(C(C)(C)C)cc1)C(C(=O)NC(C)(C)C)c1cccnc1` (stereo not drawn) [Compound 1], the pIC50 in assay [1] (setting [4]) is under 4.00.

Take `C=C(C)C(=O)N1CCCC1C(=O)N(c1ccc(C(C)(C)C)cc1)C(C(=O)NC(C)(C)C)c1cccnc1` (stereo not drawn) [Compound 4]: the pIC50 in assay [1] (setting [4]) was under 4.00.

Regarding `C=C(C)C(=O)N1CCCC1C(=O)N(c1ccc(C(C)(C)C)cc1)C(C(=O)NC(C)(C)C)c1cccnc1` (stereo not drawn) [Compound 2], the pIC50 in assay [1] (setting [3]) and in assay [2] was under 4.00 in each case.

For the compound `C/C=C(\C)C(=O)N1CCCC1C(=O)N(c1ccc(C(C)(C)C)cc1)C(C(=O)NC(C)(C)C)c1cccnc1` (stereo not drawn) [Compound 3], the pIC50 in assay [1] (setting [3]) and in assay [2] was under 4.00 in each case.
